Structures can show the parent of a compound that is named as a salt.
Columns and labels:
[1] = test system: BCR–ABL1-transformed mouse B cells; assay: Flow cytometric viability analysis (viability dye); type: cell-based; set-up: Live gate (viability dye) / Dead gate (viability dye): unit not given here; settings: for Cell viability of BCR–ABL1 cells: 1–72 h, live cell count normalized to DMSO; for Dead gate (viability dye) / Live gate (viability dye): JM#170 10 µM, representative histogram of n = 3
Method: (§1) Cells treated with either solvent control DMSO or different concentrations of inhibitors for different time points were collected and washed with ice-cold PBS. […] After washing, labeled cells were resuspended in 100 μL of PBS and acquired using LSR-Fortessa (BD Bioscience, Heidelberg, Germany). FACS data were analyzed with FlowJo software version 10.0.

[2] = test system: BCR–ABL1-transformed mouse B cells; assay: Cell proliferation assay (cell trace dye dilution); type: cell-based; settings: 10 µM, 48 and 72 h; n = 3
Method: BCR–ABL1 cells were collected at 0.5 × 10^5 cells/well of a 96-well plate and labeled with cell trace far red cell proliferation dye (#C34564, Invitrogen, Dreieich, Germany), according to the manufacturer’s instructions. Labeled cells were plated in 100 μL of complete media and were mixed with equal volume of 2X DMSO or inhibitor-containing media. A small part of the labeled cells was measured in FACS to determine the fluorescence signal on day 0. After specific time periods (48 and 72 h), cells were collected, washed with FACS buffer, and analyzed using LSR-Fortessa (BD Bioscience).

[3] = test system: AKT phosphorylation (PI3K signaling downstream of CXCR4); assay: Western blot, AKT S473 phosphorylation in BCR–ABL1 cells; type: cell-based; settings: 10 µM, 100 ng/mL mouse CXCL12, 5 min; n = 3
Method: (§2) BCR–ABL1 cells were collected as 5 × 10^6 cells/500 μL complete media and treated either with DMSO or different inhibitors in the absence and presence of 100 ng/mL mouse CXCL12 for 5, 15, and 30 min at 37 °C. Cells were then immediately transferred onto ice to stop the reaction and washed with ice-cold PBS. Cell extract was prepared by resuspending the cell pellet in 100 μL of radio-immunoprecipitation assay (RIPA) buffer supplemented with 1X protease inhibitor cocktail (#78429, Thermo Fisher), 1 mM sodium orthovanadate (Sigma-Aldrich), and 10 mM beta-glycerophosphate (Sigma-Aldrich). For each treatment, 15 μL of cell extract was mixed with 5 μL of 4X Laemmli buffer (reducing), boiled at 95 °C for 10 min, and run on 10% SDS-PAGE. Gels were wet-transferred to PVDF membranes (Millipore, Burlington, MA, USA) and stained with 0.1% ponceau-S solution to check for efficient blotting. The membranes were blocked with 3% BSA solution and incubated with primary antibodies at 4 °C overnight. The next day, primary antibodies were washed, and membranes were probed with horseradish peroxidase (HRP)-conjugated secondary antibodies at RT for 2 h. After washing, the blots were developed using Immobilon ECL Ultra Western HRP Substrate (#WBULS0500, Millipore), and images were acquired with a Fusion SL gel imaging system (Vilber Lourmat, Eberhardzell, Germany). […]

[4] = test system: ERK1/2 phosphorylation downstream of CXCR4; assay: Western blot, ERK1/2 T202/Y204 phosphorylation in BCR–ABL1 cells; type: cell-based; settings: 10 µM, 100 ng/mL mouse CXCL12, 5 min; n = 3
Method: as §2

[5] = test system: caspase 8; assay: Caspase-Glo 8 activation assay in BCR–ABL1 cells; type: cell-based, mouse; settings: 10 µM; n = 3
Method: BCR–ABL1 cells were plated at 0.5 × 10^5 cells/well of a 96-well plate in 100 μL of complete media and treated with DMSO or various inhibitors. At specific time points (24, 48 and 72 h), activation of caspases was measured with a Caspase-Glo® 3/7 Assay (#G8090) and Caspase-Glo® 8 Assay (#G8200, Promega, Madison, WI, USA) following the manufacturer’s instructions.

[6] = test system: pro/anti-apoptotic genes (Jun, Bax, Bim, Bcl2, Bcl-xl, FasL); assay: Real-time gene expression analysis (Taqman) in BCR–ABL1 cells; type: cell-based, mouse; settings: 10 µM, n = 3
Method: BCR–ABL1 cells were plated at 1 × 10^6 cells/well of a 12-well plate in 1 mL of complete media and treated with DMSO or various inhibitors. After specific time points (24 and 48 h), RNA was isolated from cells using a ReliaPrep Cell RNA miniprep kit (#Z6011, Promega). Fifty nanograms of total RNA was reverse-transcribed using a high-capacity RNA to cDNA kit (#4387406, Thermo Fisher), and gene expression was measured via Taqman assay using Taqman Gene expression master mix (#4369016, Thermo Fisher) following ghd manufacturer’s protocol. The following Taqman probes were used: Jun (Mm07296811_s1), Bax (Mm00432051_m1), Bim (Mm00437796_m1), Bcl2 (Mm00477631_m1), Bcl-xl (00437783_m1), FasL (Mm00438864_m1), and beta actin (04394036_g1).

[7] = test system: CXCR4; assay: CXCL12-driven calcium flux in 697 cells; type: cell-based; settings: 1 µM, 10 min pre-treatment, 100 ng/mL human CXCL12; n = 3
Method: Ca^2+ signaling was analyzed as described previously. Briefly, SupB15 and 697 cells were collected at 1 × 10^6 cells/treatment and loaded with calcium-sensitive dye Indo-1 AM (#I1223, Invitrogen) and 0.5 mg/mL of pluronic F-127 (#P3000MP, Invitrogen) in their respective media supplemented with 1% FBS at 37 °C for 45 min. Cells were then washed and treated with the inhibitors for 10 min at 37 °C. Baseline signal for calcium was measured for 30 s via flow cytometry, followed by stimulation with 100 ng/mL human CXCL12. The area under the curve (AUC) of each calcium flux plot was determined using FlowJo. The AUC of the water control (solvent for CXCL12) was subtracted from each treatment to obtain the correct estimation of the calcium signal upon CXCL12 stimulation.

[8] = test system: SupB15 cells; assay: Flow cytometric cell survival analysis, SupB15; type: cell-based, human; settings: for SupB15 cell survival vs DMSO: 10 µM, 24–96 h, n = 3; for Dead gate (viability dye) / Live gate (viability dye): JM#170 10 µM, representative histogram of n = 3
Method: as §1

## c1cc(CN2CCCNCCNCCCNCC2)ccc1CN1CCCNCCNCCCNCC1 [AMD3100, AMD3100 octahydrochloride hydrate, reference compound]
[1]; 10 µM, n = 3
  Cell viability of BCR–ABL1 cells: did not induce any loss of cell viability
[2]
  Proliferation of BCR–ABL1 cells (dye dilution) vs DMSO: significantly reduced the proliferation
[3]
  CXCL12-induced AKT S473 phosphorylation: this elevation was blocked
[4]
  CXCL12-induced ERK1/2 T202/Y204 phosphorylation: this elevation was blocked
[5]
  Caspase 8 activation vs DMSO: neither JM#170 nor AMD3100 induced caspase 8
[6]; 24 and 48 h
  Pro/anti-apoptotic gene expression: did not upregulate any gene expression
[7]
  CXCL12-induced calcium flux, 697: completely blocked the calcium flux
[8]
  SupB15 cell survival vs DMSO: no effect on SupB15 cell survival

## ILRWSRK * (Pal)-NH2 [JM#170, lipid-conjugated truncated version of EPI-X4, CXCR4 antagonist]
[1]; 10 µM, n = 3
  Cell viability of BCR–ABL1 cells: strong and rapid cell death
[1]; 10 µM, within 1 h of treatment, n = 3
  Cells dying: ~ 70%
[1]; 1 h
  Dead gate (viability dye): 64.5
  Live gate (viability dye): 35.5
[1]; 24 h
  Dead gate (viability dye): 85.0
  Live gate (viability dye): 15.0
[1]; 48 h
  Dead gate (viability dye): 76.4
  Live gate (viability dye): 23.6
[1]; 72 h
  Dead gate (viability dye): 63.6
  Live gate (viability dye): 36.4
[2]
  Proliferation of BCR–ABL1 cells (dye dilution) vs DMSO: no effect on proliferation
[3]
  CXCL12-induced AKT S473 phosphorylation: this elevation was blocked
[4]
  CXCL12-induced ERK1/2 T202/Y204 phosphorylation: this elevation was blocked
[5]
  Caspase 8 activation vs DMSO: neither JM#170 nor AMD3100 induced caspase 8
[6]; 24 h
  Bax gene expression: mildly upregulated
  Bcl2 gene expression: significant increase
  Bcl-xl gene expression: not altered at all
  Bim gene expression: significantly elevated
  Jun gene expression: significantly elevated
[6]; 48 h
  Bax, Bim and Bcl2 gene expression: still significantly elevated levels
[6]
  FasL gene expression: inactivation of FasL
[7]
  CXCL12-induced calcium flux, 697: completely blocked the calcium flux
[8]
  SupB15 cell survival vs DMSO: significantly reduced SupB15 cell survival
[8]; 24 h
  Dead gate (viability dye): 19.0
  Live gate (viability dye): 81.0
[8]; 72 h
  Dead gate (viability dye): 33.3
  Live gate (viability dye): 66.7
[8]; 96 h
  Dead gate (viability dye): 41.7
  Live gate (viability dye): 58.3

From article PMC11312813, “An Optimized Peptide Antagonist of CXCR4 Limits Survival of BCR–ABL1-Transformed Cells in Philadelphia-Chromosome-Positive B-Cell Acute Lymphoblastic Leukemia” (International Journal of Molecular Sciences, 2024)
